Measured values as given in US4548818A, “Composition and methods for the treatment of chronic obstructive airway disease and cardiac disease using 3-alkylxanthines” (priority 1978, dated 1985).
Read-outs that look alike come from different tables or passages of the source.

Legend:
[1] = test system: Guinea-pig heart; assay: Isolated guinea-pig hearts (Langendorff), chronotropic potency; settings: Table II; positive chronotropic potency; theophylline = 1
Procedure: From the bled guinea-pigs, the hearts were immediately removed and perfused with oxygenated Krebs solution at 37° according to Langendorff. The heart was mounted in a thermostatically controlled organ bath (25 ml) containing Krebs solution. A saline-filled, open-end polyethylene catheter was inserted into the right ventricle through the pulmonary artery. The catheter was fixed to the pulmonary artery by a ligature just above the valvular plane. It was connected to a pressure transducer (P23 AC), making it possible to record changes in intraventricular pressure. From these, the contraction frequency was obtained. Drugs were given as single bolus injections into the perfusion solution.
(§1) The left column lists molar potency ratios for bronchodilatation between theophylline and various xanthine compounds. Toxic symptoms occuring before death in mice receiving constant rate infusion of drug i.v. are accounted for in the middle column. […] The far right column indicates cardiotonic activity as positive chronotropic potency.

[2] = From the text: as §1
[3] = test system: Guinea-pig trachea; assay: Isolated guinea-pig trachea (relaxation of carbacholine-contracted tracheal muscle); settings: >1 more potent than theophylline; for Guinea-Pig trachea Potency rations of theophylline: Table II, molar potency ratio from EC50 values (50% maximum response), theophylline = 1 by definition, carbacholine 0.1 μg/ml; for Guinea-pig Tracheal Preparation Potency: Table III, potency ratio from EC50 values, theophyllin = 1 by definition
Procedure: Guinea-pigs of both sexes, weighing between 150 and 250 g, were killed by a blow on the head and bled. The trachea was removed and cut spirally yielding one or two preparations. The tracheal preparations were mounted in organ baths containing Krebs solution maintained at 37° C. and bubbled with carbogen (95% O2 +5% CO2). Isometric tension reflecting the activity in circular tracheal muscle was recorded by means of a force displacement transducer. Initial tension was set at 0.5 g which was the approximate basal tension kept during the experiment. Evaluation of relaxant effects was done when the preparations had contracted to a stable tension by the addition of carbacholine 0.1 μg/ml to the bath. […] After washing out the drugs the trachea resumed its basal tone and was left to stabilize for at least 15 min. before the next drug evaluation was performed. Between two evaluations of theophylline the effect of the test drug was examined and its EC50 value was compared with the mean of the previous and following EC50 values of theophylline.
as §1
The guinea-pig trachea were prepared as was discribed previously. Isomeric tension reflecting the activity in circular tracheal muscle was recorded by a force displacement transducer.

[4] = Acute toxicity studies in mice (intravenous and oral); type: in vivo, male NMRI mice; settings: i.v. or oral, observed 14 days
Procedure: Male NMRI mice, weighing 20-26 g. starved for 6 h were used. The compounds, dissolved in 0.5M NaOH and 0.85% NaCl-solution (pH 10.6-12.1) were administered as follows:
(a) intravenously, 0.1 ml/10 g at an injection rate of 0.3 ml per minute
At least seven dose levels, doses increasing in a geometric progression with a factor 1.2, were examined. Each dose was given to 5 animals. […] The position of extremities in dead animals indicated whether they had died in convulsions or not.

[5] = constant rate i.v. infusion, type of convulsion as in the effects column
[6] = toxic symptoms before death, constant rate i.v. infusion

SMILES	Guinea-Pig heart Potency ratios of theophylline, Chronotrop [1]	Convulsion test mice i.v., Death ([2]; constant rate i.v. infusion)	Guinea-Pig trachea Potency rations of theophylline [3]	Guinea-pig Tracheal Preparation Potency [3]	further results
O=c1[nH]c(=O)n(C2CCC2)c2nc[nH]c12 [D 4164, 3-cyclobutyl-3,7-dihydro-1H-purine-2,6-dione]	2.1	519.2 ± 16.86 mg/kg i.v.	3.8		Convulsion test mice i.v., number of animals with convulsions / animals tested ([2]; mouse, in vivo, iv): 3/10
Cc1nc2c([nH]1)c(=O)[nH]c(=O)n2CC1CCCCC1 [D 4137, 3,7-dihydro-8-methyl-3-cyclohexylmethyl-1H-purine-2,6-dione]	10	493.1 ± 19.4 mg/kg i.v.	4		
O=c1[nH]c(=O)n(C2CC2)c2nc[nH]c12 [D 4161, 3-cyclopropyl-3,7-dihydro-1H-purine-2,6-dione]		1030 ± 39.3 mg/kg i.v.	0.5		Convulsion test mice i.v., number of animals with convulsions / animals tested ([2]; mouse, in vivo, iv): 1/10
CC(O)Cn1c(=O)[nH]c(=O)c2[nH]cnc21 (stereo not drawn) [D 4083, reference compound]				0.1	
O=c1[nH]c(=O)n(CCO)c2nc[nH]c12 [D 4077, reference compound]				0.1	
Cn1c(=O)c2c(ncn2C)n(C)c1=O [Caffeine, caffeine, reference compound]	0.5	391.7 ± 17.7 mg/kg i.v.	1		Convulsion test mice i.v., number of animals with convulsions / animals tested [2, 5]: 20/20; Convulsion test mice i.v., number of animals with convulsions / animals tested ([2]; constant rate i.v. infusion, type of convulsion as in the effects column, listed as caffeine): 20 out of 20; Convulsion test mice i.v., Effects [2, 6]: tonic conv.; Convulsion test mice i.v., Effects ([2]; toxic symptoms before death, constant rate i.v. infusion, listed as caffeine): consistently produced tonic convulsions
Cn1c(=O)c2[nH]cnc2n(C)c1=O [Theophylline, theophylline, reference compound]		446.3 ± 9.6 mg/kg i.v.		1.0	Convulsive activity in acute toxicity studies [4]: repeatedly shown to occur; Convulsion test mice i.v., number of animals with convulsions / animals tested [2, 5]: 30/30; Convulsion test mice i.v., number of animals with convulsions / animals tested ([2]; constant rate i.v. infusion, type of convulsion as in the effects column, listed as theophylline): 30 out of 30; Convulsion test mice i.v., Effects [2, 6]: tonic conv.; Convulsion test mice i.v., Effects ([2]; toxic symptoms before death, constant rate i.v. infusion, listed as theophylline): consistently produced tonic convulsions
Cc1nc2c([nH]1)c(=O)[nH]c(=O)n2CC(C)O (stereo not drawn) [D 4125, reference compound]				0.4	
O=c1[nH]c(=O)n(C2CCCC2)c2nc[nH]c12 [D 4132, 3-cyclopentyl-3,7-dihydro-1H-purine-2,6-dione]	3.4	593 ± 21.9 mg/kg i.v.	5.65		
Cc1nc2c([nH]1)c(=O)[nH]c(=O)n2C1CCCC1 [D 4134, 3-cyclopentyl-3,7-dihydro-8-methyl-1H-purine-2,6-dione]			5.85		
O=c1[nH]c(=O)n(CC2CCCCC2)c2nc[nH]c12 [D 4138, 3,7-dihydro-3-cyclohexylmethyl-1H-purine-2,6-dione]	15	543.6 ± 31.7 mg/kg i.v.	5		
CC(C)(C)Cn1c(=O)[nH]c(=O)c2[nH]cnc21 [D 4034, 3,7-dihydro-3-(2,2-dimethylpropyl)-1H-purine-2,6-dione]	3	519.1 ± 16.6 mg/kg i.v.	3	3.0	
Cc1nc2c([nH]1)c(=O)[nH]c(=O)n2CC(C)(C)C [D 4070, 3,7-dihydro-3-(2,2-dimethylpropyl)-8-methyl-1H-purine-2,6-dione]	1.5	693.3 ± 22.2 mg/kg i.v.	1.8	1.8	Convulsion test mice i.v., Effects ([2]; mouse, in vivo, iv): loss of balance
Cc1nc2c([nH]1)c(=O)[nH]c(=O)n2CC(C)C [D 4169, 3,7-dihydro-8-methyl-3-(2-methylpropyl)-1H-purine-2,6-dione]				3.3	
O=c1[nH]c(=O)n(CCCO)c2nc[nH]c12 [D 4184, reference compound]				0.1	
